{"source": "paper PMC5880808", "about": "“A lever-like transduction pathway for long-distance chemical- and mechano-gating of the mechanosensitive Piezo1 channel” (Nature Communications, 2018)", "key": {"mPiezo1 [1]": {"molecular_target": "T1, mPiezo1 (Mus musculus, UniProt E2JF22)", "T1 construct": "The full-length mPiezo1 has 2547 amino acids in each monomer; expressed in transfected cells; host or cells: HEK293T", "assay": "Whole-cell patch clamp, gap-free recording, compound puffed onto cells", "type": "cell-based", "settings": "for compound-evoked whole-cell current: mPiezo1-mRuby2-expressing HEK293T, 1 mM Jedi1 or 30 μM Yoda1 puffed", "protocol": "(§1) Protocols for HEK293T cell culture, transient transfection, and patch-clamp experiments with an Axopatch 200B amplifier (Axon Instruments) or HEKA EPC10 were essentially similar to how previously described[6],[8]. […] The extracellular solution was composed of (in mM) 133 NaCl, 3 KCl, 2.5 CaCl2, 1 MgCl2, 10 HEPES (pH 7.3 with NaOH), and 10 glucose. All experiments were carried out at room temperature. Currents were sampled at 20 kHz, filtered at 2 kHz using the Clampex 10.4 software (Axon Instruments) or Patchmaster software. Leak currents before mechanical stimulations were subtracted offline from the current traces.\nStock solutions of Jedi1 (100 mM), Jedi2 (100 mM), and Yoda1 (30 mM) were solubilized in DMSO and diluted to the desired final concentrations as indicated in the figure legends using external or internal solutions. In Figs. 3a, 5b, and 6e, the compound solutions were puffed onto the cells using a multichannel perfusion system (MPS-2, World Precision Instruments) while continuously recording using a gap-free mode. In other conditions, the compounds were directly added to the recording chamber or pipette solution, and the currents were recorded within 10 min. In Figs. 5b and 6e, we used the Piezo1-KO-HEK cell line in which the endogenous Piezo1 gene is disrupted."}, "[2]": {"test_system": "mPiezo1 loop deletion mutants ΔL15-16 (657-677) and ΔL19-20 (870–921)", "assay": "Patch clamp (chemical-, poking- and stretching-induced currents), loop deletion mutants", "type": "cell-based, mouse", "protocol": "as §1\nMechanical stimulation was delivered to the cell during the patch-clamp recording at an angle of 80° using a fire-polished glass pipette (tip diameter 3–4 μm) as previously described[5],[6]. […] A series of mechanical steps in 1 μm increments was applied every 20 s and currents were recorded at a holding potential of −70 mV. […] In the step-wise poking experiment, the patch was readily lost when the cell was broken at the end of the poking. […]\nStretch-activated currents were recorded in the cell-attached patch-clamp configuration as previously described. […] Stretch-activated channels were recorded at a holding potential of −80 mV with pressure steps from 0 to −100 mm Hg (−10 mm Hg increments), and 4–11 recording traces were averaged per cell for analysis. […]"}, "[3]": {"test_system": "mPiezo1 mutants L1342A/L1345A; L1342D/L1345D; L1342S/L1345S; L1342A; L1345A", "assay": "Single-cell Ca2+ imaging or FLIPR, L1342/L1345 mutants", "type": "cell-based, mouse", "settings": "all five mutants, 1 mM Jedi1, 30 μM Yoda1", "protocol": "HEK293T cells were grown in Dulbecco’s modified Eagle medium containing 4.5 mg/ml glucose, 10% fetal bovine serum, and 1% penicillin/streptomycin. Cells were seeded in 50 μg/ml poly-D-lysine-coated 96-well plates (3 × 10^4 cells/well) and allowed to grow for about 18 h, and then co-transfected with a total of 250 ng cDNA containing Piezo1 or Piezo2 and GCaMP6s using Lipofectamine 2000 (Invitrogen, Life Technology). Two days after transfection the cells were washed with buffer containing 1× Hanks’ balanced salt solution (HBSS; 1.3 mM Ca^2+) and 10 mM HEPES (pH 7.2). The 96-well plates were then transferred to the FLIPR Tetra (Molecular Device) for monitoring the GCAMP6s fluorescence before and after addition of the compounds that were prepared in separate compound plates. […]\nFura-2 single-cell Ca^2+ imaging was performed according to the previous protocol. […] The coverslip was mounted into an inverted Nikon-Tie microscope equipped with a CoolSNAP charge-coupled devise (CCD) camera and Lambda XL light box (Sutter Instrument), and mCherry-positive and -negative cells were selected for measurement of the 340/380 ratio with a ×20 objective (numerical aperture 0.75) using the MetaFluor Fluorescence Ratio Imaging software (Molecular Device)."}, "mPiezo1 [4]": {"molecular_target": "T1, mPiezo1", "assay": "Cell-attached patch with pressure clamp (stretch-activated currents)", "type": "cell-based", "settings": "absence of externally applied pressure, compound in pipette, vs DMSO"}, "mPiezo1 [5]": {"molecular_target": "T1, mPiezo1", "assay": "Cell-attached patch with pressure clamp (stretch-activated currents)", "type": "cell-based", "settings": "for slope sensitivity (s): DMSO 14.1 ± 0.7; for P50 (the pressure required for half maximal activation): DMSO −27.0 ± 3.4", "protocol": "Stretch-activated currents were recorded in the cell-attached patch-clamp configuration as previously described. Currents were sampled at 20 kHz and filtered at 2 kHz. Pipette was filled with a solution consisting of (in mM) 130 NaCl, 5 KCl, 10 HEPES, 1 CaCl2, 1 MgCl2, and 10 TEA-Cl (pH 7.3, balanced with NaOH). The external solution used to zero the membrane potential consisted of (in mM) 140 KCl, 10 HEPES, 1 MgCl2, and 10 glucose (pH 7.3 with KOH). All experiments were done at room temperature. Membrane patches were stimulated with negative pressure pulses for 500 ms through the recording electrode using a Patchmaster-controlled pressure clamp HSPC-1 device (ALA-scientific). Stretch-activated channels were recorded at a holding potential of −80 mV with pressure steps from 0 to −100 mm Hg (−10 mm Hg increments), and 4–11 recording traces were averaged per cell for analysis. Current-pressure relationships were fitted with a Boltzmann equation of the form: I(P) = [1 + exp (−(P – P50)/s)]^−^1, where I is the peak of stretch-activated current at a given pressure, P is the applied patch pressure (in mm Hg), P50 is the pressure value that evoked a current value which is 50% of Imax, and s reflects the current sensitivity to pressure."}}}
{"smiles": "Cc1oc(-c2ccccc2)cc1C(=O)O", "note": "[Jedi1]", "values": [{"measurement": "onset and decay of evoked currents relative to Yoda1-induced currents", "setting": "mPiezo1 [1]; 1 mM Jedi1 vs 30 μM Yoda1", "result": "more rapid onset and faster decay"}, {"measurement": "compound-evoked whole-cell current", "setting": "mPiezo1 [1]", "result": "evoked inward currents"}, {"measurement": "whole-cell currents or potentiation of poking- or stretching-induced currents in loop deletion mutants", "setting": "[2]; ΔL15-16 and ΔL19-20 mutant-transfected cells", "result": "failed to elicit"}, {"measurement": "compound-evoked Ca2+ responses of L1342/L1345 mutants", "setting": "[3]", "result": "completely lost"}, {"measurement": "fold change of NPo", "setting": "mPiezo1 [4]", "result": "4.7 ± 1.4", "unit": "fold"}, {"measurement": "slope sensitivity (s)", "setting": "mPiezo1 [5]", "result": "9.8 ± 1.9", "unit": "mm Hg"}, {"measurement": "maximal stretching-induced Piezo1 current", "setting": "mPiezo1 [5]; −80 mV", "result": "Neither Jedi1 nor Yoda1 altered"}, {"measurement": "P50 (the pressure required for half maximal activation)", "setting": "mPiezo1 [5]; −80 mV", "result": "−16.7 ± 2.2", "unit": "mm Hg"}]}
{"smiles": "Clc1cccc(Cl)c1CSc1nnc(-c2cnccn2)s1", "note": "[Yoda1, reference compound]", "values": [{"measurement": "compound-evoked whole-cell current", "setting": "mPiezo1 [1]", "result": "evoked inward currents"}, {"measurement": "potentiation of stretching-induced currents of loop deletion mutants", "setting": "[2]; ΔL15-16 and ΔL19-20, −80 mV", "result": "failed to potentiate"}, {"measurement": "compound-evoked Ca2+ responses of L1342/L1345 mutants", "setting": "[3]", "result": "completely lost"}, {"measurement": "fold change of NPo", "setting": "mPiezo1 [4]", "result": "3.1 ± 1.3", "unit": "fold"}, {"measurement": "slope sensitivity (s)", "setting": "mPiezo1 [5]", "result": "8.0 ± 2.4", "unit": "mm Hg"}, {"measurement": "maximal stretching-induced Piezo1 current", "setting": "mPiezo1 [5]; −80 mV", "result": "Neither Jedi1 nor Yoda1 altered"}, {"measurement": "shift of the pressure-current relationship", "setting": "mPiezo1 [5]; −80 mV", "result": "significant leftward shift"}, {"measurement": "P50 (the pressure required for half maximal activation)", "setting": "mPiezo1 [5]; −80 mV", "result": "−15.1 ± 0.9", "unit": "mm Hg"}]}
